Assay [1] deals with T1, mutant MGL (Homo sapiens, UniProt Q99685, L169S/L176S).
T1 construct: purified mutant MGL (mut-MGLL 11-313 L179S L186S)
T1 sequence (Q99685 1-303 L169S/L176S): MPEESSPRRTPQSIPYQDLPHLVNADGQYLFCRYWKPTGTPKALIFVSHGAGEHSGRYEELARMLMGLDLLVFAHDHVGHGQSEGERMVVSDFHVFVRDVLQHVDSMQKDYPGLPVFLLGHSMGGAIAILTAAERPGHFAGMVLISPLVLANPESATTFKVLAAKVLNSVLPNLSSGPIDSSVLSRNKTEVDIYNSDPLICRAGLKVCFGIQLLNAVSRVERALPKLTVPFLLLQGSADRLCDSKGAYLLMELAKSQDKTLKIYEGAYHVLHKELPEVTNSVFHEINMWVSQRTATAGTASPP
Description: MGL ThermoFluor Assay - Mutant. The format is binding. To be noted: 0.07 mg/ml mutant MGL, 100 μM ANS, pH 7.0. As for the experimental part:
The ThermoFluor (TF) assay is a 384-well plate-based binding assay that measures thermal stability of proteins^1,2. The experiments were carried out using instruments available from Johnson & Johnson Pharmaceutical Research & Development, LLC. TF dye used in all experiments was 1,8-ANS (Invitrogen: A-47). Final TF assay conditions used for MGL studies were 0.07 mg/ml of mutant MGL, 100 μM ANS, 200 mM NaCl, 0.001% Tween-20 in 50 mM PIPES (pH=7.0).
Screening compound plates contained 100% DMSO compound solutions at a single concentration. […] Columns 12 and 24 were used as DMSO reference and contained no compound. […] Following compound dispension, protein and dye solutions were added to achieve the final assay volume of 3 μL.
Bar-coded assay plates were robotically loaded onto a thermostatically controlled PCR-type thermal block and then heated from 40 to 90° C. degrees at a ramp-rate of 1° C./min for all experiments. Fluorescence was measured by continuous illumination with UV light (Hamamatsu LC6), supplied via fiber optics and filtered through a band-pass filter (380-400 nm; >60D cutoff). Fluorescence emission of the entire 384-well plate was detected by measuring light intensity using a CCD camera (Sensys, Roper Scientific) filtered to detect 500±25 nm, resulting in simultaneous and independent readings of all 384 wells. A single image with 20-sec exposure time was collected at each temperature, and the sum of the pixel intensity in a given area of the assay plate was recorded vs temperature and fit to standard equations to yield the Tm^1. • 1.
The Kd values for certain compounds of Formula (I) were determined from a fit of the equation to the concentration-response plot of the fractional activity as a function of […]. For some experiments, quantitative NMR spectroscopy (qNMR) was used to measure concentration of the initial 100% DMSO compound solutions and, using the same fitting method, qKd values were determined.
(Differential scanning fluorimetry follows unfolding on heating by fluorescence.)

For assay [2], the target named is T2, mutant MGL (mut-MGLL 11-313 L179S L186S) (Homo sapiens, UniProt Q99685, L169S/L176S).
T2 construct: purified mutant MGL (mut-MGLL 11-313 L179S L186S)
T2 sequence (Q99685 1-303 L169S/L176S): T1 sequence (Q99685 1-303 L169S/L176S)
Description: MGL Enzyme Activity Assay, purified mutant MGL, 4MU-B substrate. The assay is classed as biochemical. To be noted: mutant MGL 5 nM, 4MU-B 10 μM, 37° C.; read-out: MGL mutant inh IC50. As for the experimental part: All rate-based assays were performed in black 384-well polypropylene PCR microplates (Abgene) in a total volume of 30 μL. Substrate 4-methylumbelliferyl butyrate (4MU-B; Sigma) and either purified mutant MGL (mut-MGLL 11-313 L179S L186S) or purified wild type MGL (wt-MGLL 6H-11-313) were diluted separately into 20 mM PIPES buffer (pH=7.0), containing 150 mM NaCl and 0.001% Tween 20. Compounds of Formula (I), including Formulas I(a), I(b), and I(c), were pre-dispensed (50 nL) into the assay plate using a Cartesian Hummingbird prior to adding 4MU-B (25 μL of 1.2× solution to a final concentration of 10 μM) followed by enzyme (5 μL of a 6× solution to a final concentration of 5 nM) to initiate the reaction. Final compound concentrations ranged from 17 to 0.0003 μM. The fluorescence change due to 4MU-B cleavage was monitored with excitation and emission wavelengths of 335 and 440 nm, respectively, and a bandwidth of 10 nm (Safire^2, Tecan) at 37° C. for 5 min.
The IC50 values for the following compounds were determined using Microsoft Office Excel from a fit of the equation to the concentration-response plot of the fractional activity as a function of inhibitor concentration.

Assay [3] has as its target T3, MGL (Rattus norvegicus, UniProt Q8R431).
T3 construct: one g rat brain was homogenized using a Polytron homogenizer; from tissue; host or cells: rat brain homogenate
T3 sequence (Q8R431 1-303): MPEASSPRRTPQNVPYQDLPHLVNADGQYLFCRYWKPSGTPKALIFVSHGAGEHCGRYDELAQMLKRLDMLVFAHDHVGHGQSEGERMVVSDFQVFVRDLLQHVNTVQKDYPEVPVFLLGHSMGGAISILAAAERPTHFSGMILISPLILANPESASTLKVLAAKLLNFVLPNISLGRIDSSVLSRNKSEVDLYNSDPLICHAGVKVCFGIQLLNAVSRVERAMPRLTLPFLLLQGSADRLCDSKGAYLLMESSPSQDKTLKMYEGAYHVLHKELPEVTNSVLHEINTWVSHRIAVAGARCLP
Description: 2-AG Accumulation Assay in rat brain homogenate. The format is biochemical. To be noted: compound @10 µM, percent of vehicle, read-out: Rat Brain 2AG % VehCntrl (%) @10 µM.

Where only a bound is given, the exact number is not on record here.

On to `O=C(c1ccc2c(ccn2S(=O)(=O)c2ccccc2)c1)N1CC(N2CC(N3Cc4ccccc4C3=O)C2)C1` [Cpd 71, 2-(1′-{[1-(Phenylsulfonyl)-1H-indol-5-yl]carbonyl}-1,3′-biazetidin-3-yl)-2,3-dihydro-1H-isoindol-1-one], for which the Kd in assay [1] turned out to be 50 nM. In addition, the IC50 in assay [2] amounted to 8 nM. Also, the activity at 10 µM in assay [3] was found to be 400%.

Turning to `O=C(c1cc2cc(Br)ccc2s1)N1CC(N2CC(N3Cc4ccccc4C3=O)C2)C1` [Cpd 93, 2-{1′-[(5-Bromo-1-benzothiophen-2-yl)carbonyl]-1,3′-biazetidin-3-yl}-2,3-dihydro-1H-isoindol-1-one], the dissociation constant (Kd) in assay [1] was 76.9 nM. In addition, in assay [2], the half-maximal inhibitory concentration (IC50) stood at 360 nM.

For `O=C(NC1CN(C2CN(C(=O)c3ccc(-c4ccccc4)cc3)C2)C1)c1ccccc1` [Cpd 39, N-[1′-(Biphenyl-4-ylcarbonyl)-1,3′-biazetidin-3-yl]benzamide], in assay [1], binding was characterised by a dissociation constant (Kd) of 222 nM. Also, the IC50 in assay [2] turned out to be 604 nM.

In assay [1], `O=C(c1ccc(-c2ccccc2)cc1)N1CC(N2CC(N3Cc4ccccc4C3=O)C2)C1` [Cpd 92, 2-[1′-(Biphenyl-4-ylcarbonyl)-1,3′-biazetidin-3-yl]-2,3-dihydro-1H-isoindol-1-one] registered a Kd of 100 nM. Also, the IC50 in assay [2] stood at 242 nM.

In assay [1], `O=C(NC1CN(C2CN(C(=O)c3ccc(Oc4ccccc4)cc3)C2)C1)c1ccccc1` [Cpd 45, N-{1′-[(4-Phenoxyphenyl)carbonyl]-1,3′-biazetidin-3-yl}benzamide] came in with a Kd of 833 nM. Moreover, the concentration for half-maximal inhibition (IC50) in assay [2] came out at 2780 nM.

The compound `O=C(NC1CN(C2CN(C(=O)c3ccc(Cc4ccccc4)cc3)C2)C1)c1ccccc1` [Cpd 31, N-{1′-[(4-Benzylphenyl)carbonyl]-1,3′-biazetidin-3-yl}benzamide] came in with an equilibrium dissociation constant (Kd) in assay [1] of 154 nM. Besides, the IC50 in assay [2] turned out to be 270 nM.

In assay [1], `O=C(c1sc2cc(Br)ccc2c1Cl)N1CC(N2CC(N3Cc4ccccc4C3=O)C2)C1` [Cpd 75, 2-{1′-[(6-Bromo-3-chloro-1-benzothiophen-2-yl)carbonyl]-1,3′-biazetidin-3-yl}-2,3-dihydro-1H-isoindol-1-one] displayed a Kd of 7 nM. Besides, the IC50 in assay [2] worked out at 15 nM.

The compound `O=C(c1ccc(Cc2ccccc2)cc1)N1CC(N2CC(N3Cc4ccccc4C3=O)C2)C1` [Cpd 94, 2-{1′-[(4-Benzylphenyl)carbonyl]-1,3′-biazetidin-3-yl}-2,3-dihydro-1H-isoindol-1-one] displayed a Kd in assay [1] of 91 nM. Further, the IC50 in assay [2] turned out to be 412 nM.

Consider `O=C(NC1CN(C2CN(C(=O)c3ccc4c(Br)cccc4c3)C2)C1)c1ccccc1` [Cpd 24, N-{1′-[(5-Bromonaphthalen-2-yl)carbonyl]-1,3′-biazetidin-3-yl}benzamide], for which, in assay [2], the IC50 is 99 nM. In addition, in assay [3], the activity at 10 µM came out at 73%.

Turning to `O=C(c1ccc(Cc2cccc(C(F)(F)F)c2)cc1)N1CC(N2CC(N3Cc4ccccc4C3=O)C2)C1` [Cpd 86, 2-[1′-({4-[3-(Trifluoromethyl)benzyl]phenyl}carbonyl)-1,3′-biazetidin-3-yl]-2,3-dihydro-1H-isoindol-1-one], the IC50 in assay [2] was 50 nM. Further, the activity at 10 µM in assay [3] was 447%.

Consider `O=C(c1ccc2c(ccn2-c2ccccc2C(F)(F)F)c1)N1CC(N2CC(N3Cc4ccccc4C3=O)C2)C1` [Cpd 89, 2-[1′-({1-[2-(Trifluoromethyl)phenyl]-1H-indol-5-yl}carbonyl)-1,3′-biazetidin-3-yl]-2,3-dihydro-1H-isoindol-1-one], for which the half-inhibitory concentration (IC50) in assay [2] turned out to be 98 nM. Moreover, the activity at 10 µM in assay [3] was 663%.

As to `O=C(c1ccc2nc(-c3cccc(C(F)(F)F)c3)oc2c1)N1CC(N2CC(N3Cc4ccccc4C3=O)C2)C1` [Cpd 78, 2-[1′-({2-[3-(Trifluoromethyl)phenyl]-1,3-benzoxazol-6-yl}carbonyl)-1,3′-biazetidin-3-yl]-2,3-dihydro-1H-isoindol-1-one], the dissociation constant Kd in assay [1] worked out at 40 nM. Also, in assay [2], the IC50 stood at 17 nM.

`O=C(NC1CN(C2CN(C(=O)c3nc4cc(C(F)(F)F)ccc4s3)C2)C1)c1nccs1` [Cpd 47, N-(1′-{[5-(Trifluoromethyl)-1,3-benzothiazol-2-yl]carbonyl}-1,3′-biazetidin-3-yl)-1,3-thiazole-2-carboxamide]: binding in assay [1] was put at a Kd of 2500 nM. Besides, in assay [2], the IC50 was determined as 4750 nM.

Turning to `O=C(c1ccc2nc(-c3ccc(Cl)cc3)oc2c1)N1CC(N2CC(N3Cc4ccccc4C3=O)C2)C1` [Cpd 88, 2-(1′-{[2-(4-Chlorophenyl)-1,3-benzoxazol-6-yl]carbonyl}-1,3′-biazetidin-3-yl)-2,3-dihydro-1H-isoindol-1-one], the IC50 in assay [2] turned out to be 96 nM. Moreover, the activity at 10 µM in assay [3] amounted to 294%.

In assay [1], `O=C(NC1CN(C2CN(C(=O)c3ccc4nc(Br)sc4c3)C2)C1)c1cscn1` [Cpd 46, N-{1′-[(2-Bromo-1,3-benzothiazol-6-yl)carbonyl]-1,3′-biazetidin-3-yl}-1,3-thiazole-4-carboxamide] yielded an equilibrium dissociation constant (Kd) of 3400 nM. Further, in assay [2], the half-maximal inhibitory concentration (IC50) was found to be 3750 nM.

In the case of `O=C(NC1CN(C2CN(C(=O)c3ccc(Cc4cccc(C(F)(F)F)c4)cc3)C2)C1)c1nccs1` [Cpd 20, N-[1′-({4-[3-(Trifluoromethyl)benzyl]phenyl}carbonyl)-1,3′-biazetidin-3-yl]-1,3-thiazole-2-carboxamide], the concentration for half-maximal inhibition (IC50) in assay [2] came to 65 nM. Moreover, the activity at 10 µM in assay [3] worked out at 977%.

The compound `O=C(NC1CN(C2CN(C(=O)c3ccc4ccn(-c5ccccc5)c4c3)C2)C1)c1nccs1` [Cpd 27, N-{1′-[(1-Phenyl-1H-indol-6-yl)carbonyl]-1,3′-biazetidin-3-yl}-1,3-thiazole-2-carboxamide] had a dissociation constant (Kd) in assay [1] of 446 nM. The 50% inhibitory concentration (IC50) in assay [2] worked out at 167 nM.

In turn, `O=C(NC1CN(C2CN(C(=O)c3ccc(Br)cc3)C2)C1)c1nccs1` [Cpd 43, N-{1′-[(4-Bromophenyl)carbonyl]-1,3′-biazetidin-3-yl}-1,3-thiazole-2-carboxamide] gave a Kd in assay [1] of 3330 nM. The half-maximal inhibitory concentration (IC50) in assay [2] came to 1680 nM.

For the compound `Cc1c(C(=O)N2CC(N3CC(NC(=O)c4nccs4)C3)C2)sc2ccc(Cl)cc12` [Cpd 15, N-{1′-[(5-Chloro-3-methyl-1-benzothiophen-2-yl)carbonyl]-1,3′-biazetidin-3-yl}-1,3-thiazole-2-carboxamide], the IC50 in assay [2] was found to be 28 nM. In assay [3], the activity at 10 µM came out at 611%.

In the case of `O=C(NC1CN(C2CN(C(=O)c3ccc4c(-c5ccccc5)cccc4c3)C2)C1)c1nccs1` [Cpd 53, N-{1′-[(5-Phenylnaphthalen-2-yl)carbonyl]-1,3′-biazetidin-3-yl}-1,3-thiazole-2-carboxamide], the IC50 in assay [2] is below 5 nM. Besides, the activity at 10 µM in assay [3] amounted to 722%.

As usually defined, the Kd is a measure of binding affinity in units of concentration. A word on the IC50: it is the concentration needed to halve the response being measured.

(Values after patent publication US8759333B2, “Di-azetidinyl diamide as monoacylglycerol lipase inhibitors” (Janssen Pharmaceutica, NV, priority 2010, dated 2014).)
